# Laboratory results from patent US11324757B2, “Pharmaceutical composition for treatment of increased intraocular pressure” (NOVALIQ GMBH, priority 2010, dated 2022).
# Where “and” joins values, the source holds several entries; their conditions need not be identical. Equal values may be shown once. Read-outs that look alike come from different tables or passages of the source.
# Experiments:
# Refractive index = assay type: physicochemical; settings: selected SFA's, neat
# rabbit eyes (cornea) [1] = test: Ex-vivo eye irritation test (EVEIT), corneal lesions by abrasion
# Experimental: (§2) The physiological tolerability of this solution was evaluated in an ex-vivo eye irritation test (EVEIT) using rabbit eyes taken from freshly sacrificed animals. The eyes were fastened in chambers coupled micropump systems which continuously supplied the eyes with cultivation medium (Minimal Essential Medium, MEM T031-OS) without fetal calf serum. The vitality of the eyes was monitored by regularly measuring the concentration of lactate and glucose in the chamber eluate. The corneal surface of the eyes was damaged by abrasion, using a dental ceramic abrasive (638XF, Meisinger). For each eye, four lesions of 3.0 to 4.5 mm^2 were prepared.
# (§3) To evaluate the effect of F4H5 and F4H5 with 1 wt.-% ethanol on the cornea, an amount of approx. 0.25 to 0.50 μl of the respective test substance was dropped onto the centre of a cornea once every hour over a period of 12 hours, followed by a 12 hour resting period in which the cornea was submersed in culture medium to simulate a closed lid during a night phase. In addition, an aqueous solution of hyaluronic acid (0.1 wt.-%) was used as reference (hyaluronic acid is know to enhance the restoration of the corneal surface after damage), culture medium was used as control, and aqueous benzalkonium chloride solution (0.01 wt.-%) was used as negative control. Each test was performed over a period of 3 days. The effects were observed by optical coherence tomography (OCT), by digitally determining the dimensions of the lesions after staining with fluorescein, and finally by a histological evaluation of the corneal epithelium and endothelium at the end of each experiment.
# (§4) Each of the two vehicles was tested in two separate runs.
# [2] = descriptive term; cited from earlier work
# rabbit eyes (cornea) [3] = test system: rabbit eyes (cornea)
# Experimental: as §2, §3, §4
# [4] = test system: P. aeruginosa (ATCC 9027); test: Antimicrobial preservative effectiveness test (USP 32 <51>); assay type: cell-based, Pseudomonas aeruginosa; settings: for cfu/mL 0 h / cfu/mL 24 h / cfu/mL 48 h: approx. 22.5° C.
# Experimental: (§1) An antimicrobial preservative effectiveness test in analogy to that of USP 32 <51> was carried out. Sample vials comprising […] or F6H8, respectively, were inoculated with Escherichia coli, Pseudomonas aeruginosa, Staphylococcus aureus, Candida albicans and Aspergillus niger and incubated at approx. 22.5° C.
# A. niger (ATCC 16404) = test: as above; assay type: cell-based, Aspergillus niger; settings: for cfu/mL 0 h / cfu/mL 24 h / cfu/mL 48 h / cfu/mL 6 d: approx. 22.5° C.
# Experimental: as §1
# [5] = Droplet size (weight and volume) from three droppers; assay type: physicochemical; settings: 25° C.; for droplet volume, Glass pipette / droplet weight, Glass pipette: 2 mL glass Pasteur pipette; for droplet volume, Glass pipette / droplet volume, Injection needle / droplet volume, Eye dropper: calculated from weight; for droplet weight, Glass pipette / droplet weight, Injection needle / droplet weight, Eye dropper: mean ± SD of 10; for droplet volume, Injection needle / droplet weight, Injection needle: 20 G injection needle; for droplet volume, Eye dropper / droplet weight, Eye dropper: dropper of commercial eye drops (Hylo-Vision)
# Experimental: The droplet size of selected SFA's in terms of weight and volume of droplets from three droppers was determined and compared to that of purified water. The devices used for dispensing the droplets were (a) a 2 mL Pasteur pipette (wall thickness 0.53 mm; external tip diameter: 1.50 mm; length: 150 mm) made of glass, (b) a 20 G (0.9 mm×50 mm) injection needle, and (c) a dropper from a commercial eye drops product (Hylo-Vision). The droplet weights were measured at 25° C. using a laboratory balance; the volumes were calculated. Each test was performed 10 times.
# [6] = Contact angle (wetting) on compressed drug tablets
# S. aureus (ATCC 6538) = test: Antimicrobial preservative effectiveness test (USP 32 <51>); assay type: cell-based, Staphylococcus aureus; settings: for cfu/mL 0 h / cfu/mL 24 h / cfu/mL 48 h: approx. 22.5° C.
# Experimental: as §1
# C. albicans (ATCC 10231) = test: as above; assay type: cell-based, Candida albicans; settings: for cfu/mL 0 h / cfu/mL 24 h / cfu/mL 48 h: approx. 22.5° C.
# Experimental: as §1
# E. coli (ATCC 8739) = test: as above; assay type: cell-based, Escherichia coli; settings: for cfu/mL 0 h / cfu/mL 24 h / cfu/mL 48 h: approx. 22.5° C.
# Experimental: as §1
# [7] = typical values for comparison; water at room temperature (RT); cited from earlier work
# [8] = Solubility of latanoprost in F4H5/ethanol by HPLC; assay type: physicochemical; settings: F4H5/ethanol mixture (99:1 by weight), organic solvent or mixture, thermodynamic from solid; in mixture of F4H5 and ethanol (ratio 99:1 by weight)
# Experimental: In a separate experiment, the solubility of latanoprost in a mixture of F4H5 and ethanol (ratio 99:1 by weight) was determined by HPLC according to Ph.Eur.2.2.29 after rotation evaporation of the solvent methyl acetate in vacuo, addition of the solvent under examination of the residue and determination of the dissolved amount.
# [9] = on fenofibrate tablet (150 mg, 15-20 kN, 13 mm)
# [10] = on trospium chloride tablet (150 mg, 15-20 kN, 13 mm)
molecule,measurement,setting,value
CCC(F)(F)C(F)(F)C(F)(F)C(F)(F)C(F)(F)C(F)(F)F [Example F6H2],Refractive index,Refractive index,"1,295"
CCCCCCCC(F)(F)C(F)(F)C(F)(F)C(F)(F)F [Example F4H7],Refractive index,Refractive index,"1,3357"
CCCCCCCC(F)(F)C(F)(F)C(F)(F)C(F)(F)C(F)(F)C(F)(F)F [Example F6H7],Refractive index,Refractive index,"1,3366"
hyaluronic acid [HA],morphological and histological evaluation of cornea,rabbit eyes (cornea) [1]; at end of test,"entirely clear at the end of the tests, with healthy and smooth surface morphology"
same,Initial size of corneal lesions,"rabbit eyes (cornea) [1]; before the test, separate runs",13.22 mm^2 and 16.03 mm^2 and 14.87 mm^2
same,healing of corneal lesions,"rabbit eyes (cornea) [1]; ex-vivo rabbit eye, 3 days, fluorescein staining",Substantial healing
same,Change of lesion size,"rabbit eyes (cornea) [1]; final vs initial size, 3 days, separate runs",−97.3% and −98.5% and −100%
CCCCCCCC(=O)CC[C@@H]1[C@@H](C/C=C\CCCC(=O)O)[C@@H](O)C[C@H]1O [unoprostone],solubility in water,[2],practically insoluble
"CCNC(=O)CCC/C=C\C[C@@H]1[C@@H](/C=C/[C@@H](O)CCc2ccccc2)[C@H](O)C[C@@H]1O [Bimatoprost, (Z)-7-[(1R,2R,3R,5S)-3,5-Dihydroxy-2-[(1E,3S)-3-hydroxy-5-phenyl-1-pentenyl]cyclopentyl]-N-ethyl-5-heptenamide]",solubility in water,[2],slightly soluble
"benzalkonium chloride [BAC, reference compound]",Final size of corneal lesions,rabbit eyes (cornea) [3],>60 mm^2
same,Initial size of corneal lesions,rabbit eyes (cornea) [3],16.05 mm^2
same,healing of corneal lesions,rabbit eyes (cornea) [3],rapid growth of the lesions
same,morphological and histological evaluation of cornea,rabbit eyes (cornea) [3],complete disintegration of the corneal epithelium
CCCCCCCCC(F)(F)C(F)(F)C(F)(F)C(F)(F)C(F)(F)C(F)(F)F [Example F6H8],cfu/mL 0 h,[4],1 600 cfu/mL
same,Change in log steps 24 h,[4],≤−1.2 log steps
same,cfu/mL 24 h,[4],<100 cfu/mL
same,Change in log steps 48 h,[4],≤−1.2 log steps
same,cfu/mL 48 h,[4],<100 cfu/mL
same,Refractive index,Refractive index,"1,3432"
same,cfu/mL 0 h,A. niger (ATCC 16404),1 500 cfu/mL
same,Change in log steps 24 h,A. niger (ATCC 16404),≤−1.2 log steps
same,cfu/mL 24 h,A. niger (ATCC 16404),<100 cfu/mL
same,Change in log steps 48 h,A. niger (ATCC 16404),≤−1.2 log steps
same,cfu/mL 48 h,A. niger (ATCC 16404),<100 cfu/mL
same,Change in log steps 6 d,A. niger (ATCC 16404),≤−1.2 log steps
same,cfu/mL 6 d,A. niger (ATCC 16404),<100 cfu/mL
same,Change of lesion size,rabbit eyes (cornea) [3],−100.0%
same,Final size of corneal lesions,rabbit eyes (cornea) [3],0.00 mm^2
same,healing of corneal lesions,rabbit eyes (cornea) [3],all lesions healed fully
same,morphological and histological evaluation of cornea,rabbit eyes (cornea) [3],dense stromata with very few clefts and well-arranged keratocytes
same,"droplet volume, Glass pipette",[5],5.0 ± 0.4 µL
same,"droplet weight, Glass pipette",[5],6.6 ± 0.6 mg
same,"droplet volume, Injection needle",[5],2.5 ± 0.1 µL
same,"droplet weight, Injection needle",[5],3.4 ± 0.2 mg
same,"droplet volume, Eye dropper",[5],10.3 ± 0.3 µL
same,"droplet weight, Eye dropper",[5],13.7 ± 0.4 mg
same,contact angle,[6]; [9],not measurable
same,contact angle,[6]; [10],not measurable
same,cfu/mL 0 h,S. aureus (ATCC 6538),2 900 cfu/mL
same,Change in log steps 24 h,S. aureus (ATCC 6538),≤−1.4 log steps
same,cfu/mL 24 h,S. aureus (ATCC 6538),<100 cfu/mL
same,Change in log steps 48 h,S. aureus (ATCC 6538),≤−1.4 log steps
same,cfu/mL 48 h,S. aureus (ATCC 6538),<100 cfu/mL
same,cfu/mL 0 h,C. albicans (ATCC 10231),1 500 cfu/mL
same,Change in log steps 24 h,C. albicans (ATCC 10231),≤−1.2 log steps
same,cfu/mL 24 h,C. albicans (ATCC 10231),<100 cfu/mL
same,Change in log steps 48 h,C. albicans (ATCC 10231),≤−1.1 log steps
same,cfu/mL 48 h,C. albicans (ATCC 10231),<100 cfu/mL
same,cfu/mL 0 h,E. coli (ATCC 8739),1 600 cfu/mL
same,Change in log steps 24 h,E. coli (ATCC 8739),≤−1.2 log steps
same,cfu/mL 24 h,E. coli (ATCC 8739),<100 cfu/mL
same,Change in log steps 48 h,E. coli (ATCC 8739),≤−1.2 log steps
same,cfu/mL 48 h,E. coli (ATCC 8739),<100 cfu/mL
CCCCCCC(F)(F)C(F)(F)C(F)(F)C(F)(F)C(F)(F)C(F)(F)F [Example F6H6],Refractive index,Refractive index,"1,3224"
CCCCCCCCC(F)(F)C(F)(F)C(F)(F)C(F)(F)F [Example F4H8],Refractive index,Refractive index,"1,348"
CCCCC(F)(F)C(F)(F)C(F)(F)C(F)(F)C(F)(F)C(F)(F)F [Example F6H4],Refractive index,Refractive index,"1,306"
CCCCCCC(F)(F)C(F)(F)C(F)(F)C(F)(F)F [Example F4H6],Refractive index,Refractive index,"1,334"
CCCCC(F)(F)C(F)(F)C(F)(F)C(F)(F)F [Example F4H4],Refractive index,Refractive index,"1,308"
CCCCCC(F)(F)C(F)(F)C(F)(F)C(F)(F)F [Example F4H5],cfu/mL 0 h,[4],1 600 cfu/mL
same,Change in log steps 24 h,[4],≤−1.2 log steps
same,cfu/mL 24 h,[4],<100 cfu/mL
same,Change in log steps 48 h,[4],≤−1.2 log steps
same,cfu/mL 48 h,[4],<100 cfu/mL
same,Refractive index,Refractive index,"1,3204"
same,cfu/mL 0 h,A. niger (ATCC 16404),3 000 cfu/mL
same,Change in log steps 24 h,A. niger (ATCC 16404),≤−1.4 log steps
same,cfu/mL 24 h,A. niger (ATCC 16404),<100 cfu/mL
same,Change in log steps 48 h,A. niger (ATCC 16404),≤−1.2 log steps
same,cfu/mL 48 h,A. niger (ATCC 16404),<100 cfu/mL
same,Change in log steps 6 d,A. niger (ATCC 16404),≤−1.2 log steps
same,cfu/mL 6 d,A. niger (ATCC 16404),<100 cfu/mL
same,morphological and histological evaluation of cornea,rabbit eyes (cornea) [3],"entirely clear at the end of the tests, with healthy and smooth surface morphology"
same,penetration into the cornea (OCT imaging),rabbit eyes (cornea) [3],no indication of penetration
same,tolerability by the eye,rabbit eyes (cornea) [3],better tolerated than culture medium
same,"droplet volume, Glass pipette",[5],4.7 ± 0.3 µL
same,"droplet weight, Glass pipette",[5],6.0 ± 0.4 mg
same,"droplet volume, Injection needle",[5],2.0 ± 0.3 µL
same,"droplet weight, Injection needle",[5],2.6 ± 0.4 mg
same,"droplet volume, Eye dropper",[5],9.6 ± 0.2 µL
same,"droplet weight, Eye dropper",[5],12.4 ± 0.2 mg
same,contact angle,[6]; [9],not measurable
same,contact angle,[6]; [10],not measurable
same,cfu/mL 0 h,S. aureus (ATCC 6538),2 900 cfu/mL
same,Change in log steps 24 h,S. aureus (ATCC 6538),≤−1.4 log steps
same,cfu/mL 24 h,S. aureus (ATCC 6538),<100 cfu/mL
same,Change in log steps 48 h,S. aureus (ATCC 6538),≤−1.4 log steps
same,cfu/mL 48 h,S. aureus (ATCC 6538),<100 cfu/mL
same,cfu/mL 0 h,C. albicans (ATCC 10231),1 500 cfu/mL
same,Change in log steps 24 h,C. albicans (ATCC 10231),≤−1.2 log steps
same,cfu/mL 24 h,C. albicans (ATCC 10231),<100 cfu/mL
same,Change in log steps 48 h,C. albicans (ATCC 10231),≤−1.1 log steps
same,cfu/mL 48 h,C. albicans (ATCC 10231),<100 cfu/mL
same,cfu/mL 0 h,E. coli (ATCC 8739),1 600 cfu/mL
same,Change in log steps 24 h,E. coli (ATCC 8739),≤−1.2 log steps
same,cfu/mL 24 h,E. coli (ATCC 8739),<100 cfu/mL
same,Change in log steps 48 h,E. coli (ATCC 8739),≤−1.2 log steps
same,cfu/mL 48 h,E. coli (ATCC 8739),<100 cfu/mL
"O [Water, reference compound]",Refractive index,[7],1.333
same,"droplet volume, Glass pipette",[5],31.3 ± 1.4 µL
same,"droplet weight, Glass pipette",[5],31.2 ± 1.4 mg
same,"droplet volume, Injection needle",[5],11.1 ± 0.9 µL
same,"droplet weight, Injection needle",[5],11.0 ± 0.9 mg
same,"droplet volume, Eye dropper",[5],36.1 ± 2.2 µL
same,"droplet weight, Eye dropper",[5],36.0 ± 2.2 mg
same,contact angle,[6]; [9],92.5 °
CCCCCCCCCC(F)(F)C(F)(F)C(F)(F)C(F)(F)C(F)(F)C(F)(F)F [Example F6H9],Refractive index,Refractive index,"1,3494"
"CC(C)OC(=O)CCCC=CCC1C(O)CC(O)C1C=CC(O)COc1cccc(C(F)(F)F)c1 (stereo not shown) [travoprost, propan-2-yl 7-[3,5-dihydroxy-2-[3-hydroxy-4-[3-(trifluoromethyl)phenoxy]-but-1-enyl]-cyclopentyl]hept-5-enoate]",solubility in water,[2],practically insoluble
"CC(C)OC(=O)CCC/C=C\C[C@@H]1[C@@H](CC[C@@H](O)CCc2ccccc2)[C@H](O)C[C@@H]1O [latanoprost, isopropyl-(Z)-7[(1R,2R,3R,5S)3,5-dihydroxy-2-[(3R)-3-hydroxy-5-phenylpentyl]cyclopentyl]-5-heptenoate]",solubility,[8],57 µg/mL
same,solubility in water,[2],practically insoluble
